Key:
[1] = target: MDM2 (Homo sapiens, UniProt Q00987); experiment: HTRF test: inhibition of MDM2-p53 protein binding
[2] = target: T1, MDMX (Homo sapiens, UniProt O15151); experiment: HTRF test: inhibition of MDMX-p53 protein binding
T1 sequence (O15151 2-134): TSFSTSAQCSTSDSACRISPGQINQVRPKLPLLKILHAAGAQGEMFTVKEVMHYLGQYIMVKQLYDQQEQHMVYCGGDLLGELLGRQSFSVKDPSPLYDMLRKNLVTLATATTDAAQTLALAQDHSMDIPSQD

[3] = system: Blood cancer cells RS4; 11; experiment: CellTiter Glo test: growth inhibition of cells; assay type: cell-based; details: Homo sapiens, 11 cells, 72 h, cell viability
Procedure: Test of Candidate Compounds on Growth Inhibition of Cells Determined by CellTiter Glo
Blood cancer cells RS4; 11 were inoculated into the 96-well cell culture plate through Multidrop 3000 cells per well, with a volume of 100 μL. The final compound concentration ranged from 50 μM to 0.01 μM at 9 concentration gradients and the DMSO final concentration was 0.1%. The cells and compounds were co-incubated in a cell incubator at 37° C. for 72 h, a CellTiter-Glo Luminescent Cell Viability Assay reagent was added 100 μL/well, the cells and compound were uniformly mixed and incubated at room temperature for 10 min, and Envision reading was performed. A sample treated with 50 μM of a positive compound was taken as a positive control and a sample treated with 100 nL of DMSO was taken as a negative control.

Chain of MDM2 (Q00987 2-138): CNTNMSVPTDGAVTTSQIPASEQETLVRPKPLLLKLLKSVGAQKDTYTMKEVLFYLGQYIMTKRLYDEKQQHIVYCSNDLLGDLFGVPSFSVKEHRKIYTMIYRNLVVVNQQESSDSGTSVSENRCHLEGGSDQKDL

Structure (SMILES)	IC50 [1] [nM]	IC50 [2] [nM]	IC50 [3] [nM]
N#Cc1ccc(CN2C(=O)N/C(=C\c3c[nH]c4c(OCF)c(Cl)ccc34)C2=O)cc1 [Compound 13, (Z)-4-((4-((6-chloro-7-(fluoromethoxyl)-1H-indol-3-yl)methylene)-2,5-dioxoimidazolidin-1-yl)methyl)benzonitrile]	< 10	10 to 100	> 10000
N#Cc1ccc(C(CO)N2C(=O)N/C(=C\c3c[nH]c4c(F)c(Cl)ccc34)C2=O)cc1F (stereo not drawn) [Compound 37, (Z)-4-(1-(4-((6-chloro-7-fluoro-1H-indol-3-yl)methylene)-2,5-dioxoimidazolidin-1-yl)-2-hydroxyethyl)-2-fluorobenzonitrile]	10 to 100	10 to 100	≤ 1000
N#Cc1ccc(C(C(=O)NC(CO)CO)N2C(=O)N/C(=C\c3c[nH]c4c(F)c(Cl)ccc34)C2=O)cc1 (stereo not drawn) [Compound 29, (Z)-2-(4-((6-chloro-7-fluoro-1H-indol-3-yl)methylene)-2,5-dioxoimidazolidin-1-yl)-2-(4-cyanophenyl)-N-(1,3-dihydroxypropan-2-yl)acetamide]	< 10	< 10	1000 to 10000
N#Cc1ccc(C(C(=O)NC(CO)CO)N2C(=O)N/C(=C\c3c[nH]c4c(F)c(Cl)ccc34)C2=O)cc1F (stereo not drawn) [Compound 27, (Z)-2-(4-((6-chloro-7-fluoro-1H-indol-3-yl)methylene)-2,5-dioxoimidazolidin-1-yl)-2-(4-cyano-3-fluorophenyl)-N-(1,3-dihydroxypropan-2-yl)acetamide]	< 10	< 10	≤ 1000
O=C1N/C(=C\c2c[nH]c3cc(Cl)ccc23)C(=O)N1Cc1ccc(F)c(F)c1 [Compound 1, (Z)-5-((6-chloro-1H-indol-3-yl)methylene)-3-(3,4-difluorobenzyl)imidazolidine-2,4-dione]	10 to 100	10 to 100	1000 to 10000
Cc1c(Cl)ccc2c(/C=C3\NC(=O)N(Cc4ccc(C#N)c(F)c4)C3=O)c[nH]c12 [Compound 21, (Z)-4-((4-((6-chloro-7-methyl-1H-indol-3-yl)methylene)-2,5-dioxoimidazolidin-1-yl)methyl)-2-fluorobenzonitrile]	10 to 100	< 10	≤ 1000
O=C1N/C(=C\c2c[nH]c3c(F)c(Cl)ccc23)C(=O)N1Cc1ccc(Cl)cc1F [Compound 98, (Z)-3-(4-chloro-2-fluorobenzyl)-5-((6-chloro-7-fluoro-1H-indol-3-yl)methylene)imidazolidine-2,4-dione]	10 to 100	> 100	≤ 1000
N#Cc1ccc(CN2C(=O)N/C(=C\c3c[nH]c4cc(Cl)ccc34)C2=O)cc1 [Compound 4, (Z)-4-((4-((6-chloro-1H-indol-3-yl)methylene)-2,5-dioxoimidazolidin-1-yl)methyl)benzonitrile]	10 to 100	10 to 100	≤ 1000
N#Cc1ccc([C@@H](CO)N2C(=O)N/C(=C\c3c[nH]c4cc(Cl)ccc34)C2=O)cc1 [Compound 50, (S,Z)-4-(1-(4-((6-chloro-1H-indol-3-yl)methylene)-2,5-dioxoimidazolidin-1-yl)-2-hydroxyethyl)benzonitrile]	10 to 100	> 100	≤ 1000
O=C1N/C(=C\c2c[nH]c3c(F)c(Cl)ccc23)C(=O)N1Cc1ccc(Cl)cc1 [Compound 15, (Z)-5-((6-chloro-7-fluoro-1H-indol-3-yl)methylene)-3-(4-chlorobenzyl)imidazolidine-2,4-dione]	10 to 100	10 to 100	≤ 1000
O=C(NCCO)C(c1ccc(Cl)cc1)N1C(=O)N/C(=C\c2c[nH]c3cc(Cl)ccc23)C1=O (stereo not drawn) [Compound 62, (Z)-2-(4-((6-chloro-1H-indol-3-yl)methylene)-2,5-dioxoimidazolidin-1-yl)-2-(4-chlorophenyl)-N-(2-hydroxyethyl)acetamide]	< 10	10 to 100	≤ 1000
CSc1c(Cl)ccc2c(/C=C3\NC(=O)N(Cc4ccc(F)c(F)c4)C3=O)c[nH]c12 [Compound 9]	10 to 100	10 to 100	> 10000
O=C1N/C(=C\c2c[nH]c3cc(Cl)ccc23)C(=O)N1[C@@H](CO)c1ccc(F)c(F)c1 [Compound 54, (R,Z)-5-((6-chloro-1H-indol-3-yl)methylene)-3-(1-(3,4-difluorophenyl)-2-hydroxyethyl)imidazolidine-2,4-dione]	10 to 100	10 to 100	≤ 1000
O=C(NCCO)C(c1ccc(Cl)cc1)N1C(=O)N/C(=C\c2c[nH]c3c(F)c(Cl)ccc23)C1=O (stereo not drawn) [Compound 59, (Z)-2-(4-((6-chloro-7-fluoro-1H-indol-3-yl)methylene)-2,5-dioxoimidazolidin-1-yl)-2-(4-chlorophenyl)-N-(2-hydroxyethyl)acetamide]	< 10	10 to 100	≤ 1000
Cc1c(Cl)ccc2c(/C=C3\NC(=O)N(C(C(=O)NC(CO)CO)c4ccc(C#N)cc4)C3=O)c[nH]c12 (stereo not drawn) [Compound 32, (Z)-2-(4-((6-chloro-7-methyl-1H-indol-3-yl)methylene)-2,5-dioxoimidazolidin-1-yl)-2-(4-cyanophenyl)-N-(1,3-dihydroxypropan-2-yl)acetamide]	< 10	< 10	1000 to 10000

Next, values leading:

IC50 [1] [nM]	IC50 [2] [nM]	IC50 [3] [nM]	Structure (SMILES)
10 to 100	10 to 100	≤ 1000	O=C1N/C(=C\c2c[nH]c3c(F)c(Cl)ccc23)C(=O)N1C(CO)c1ccc(Cl)cc1F (stereo not drawn) [Compound 99, (Z)-3-(1-(4-chloro-2-fluorophenyl)-2-hydroxyethyl)-5-((6-chloro-7-fluoro-1H-indol-3-yl)methylene)imidazolidine-2,4-dione]
< 10	> 100	1000 to 10000	O=C1N/C(=C\c2c[nH]c3c(F)c(Cl)ccc23)C(=O)N1C(CO)c1c(F)cc(Cl)cc1F (stereo not drawn) [Compound 103, (Z)-3-(1-(4-chloro-2,6-difluorophenyl)-2-hydroxyethyl)-5-((6-chloro-7-fluoro-1H-indol-3-yl)methylene)imidazolidine-2,4-dione]
< 10	10 to 100	≤ 1000	O=C1N/C(=C\c2c[nH]c3c(F)c(Cl)ccc23)C(=O)N1Cc1cc(F)c(Cl)cc1F [Compound 100, (Z)-3-(4-chloro-2,5-difluorobenzyl)-5-((6-chloro-7-fluoro-1H-indol-3-yl)methylene)imidazolidine-2,4-dione]
< 10	< 10	≤ 1000	Cc1c(Cl)ccc2c(/C=C3\NC(=O)N(C(C(=O)NCCO)c4ccc(C#N)cc4)C3=O)c[nH]c12 (stereo not drawn) [Compound 60, (Z)-2-(4-((6-chloro-7-methyl-1H-indol-3-yl)methylene)-2,5-dioxoimidazolidin-1-yl)-2-(4-cyanophenyl)-N-(2-hydroxyethyl)acetamide]
< 10	< 10	≤ 1000	N#Cc1ccc(CN2C(=O)N/C(=C\c3c[nH]c4c(F)c(Cl)ccc34)C2=O)cc1 [Compound 16, (Z)-4-((4-((6-chloro-7-fluoro-1H-indol-3-yl)methylene)-2,5-dioxoimidazolidin-1-yl)methyl)benzonitrile]
< 10	< 10	≤ 1000	Cc1c(Cl)ccc2c(/C=C3\NC(=O)N(C(C(=O)NC(CO)(CO)CO)c4ccc(F)c(F)c4)C3=O)c[nH]c12 (stereo not drawn) [Compound 30, (Z)-2-(4-((6-chloro-7-methyl-1H-indol-3-yl)methylene)-2,5-dioxoimidazolidin-1-yl)-2-(3,4-difluorophenyl)-N-(1,3-dyhydroxl-2-(hydroxymethyl)-2-propyl)acetamide]
< 10	10 to 100	1000 to 10000	N#Cc1ccc(CN2C(=O)N/C(=C\c3c[nH]c4c(OCF)c(Cl)ccc34)C2=O)cc1F [Compound 11, (Z)-4-((4-((6-chloro-7-(fluoromethoxyl)-1H-indol-3-yl)methylene)-2,5-dioxoimidazolidin-1-yl)methyl)-2-fluorobenzonitrile]
< 10	< 10	≤ 1000	Cc1c(Cl)ccc2c(/C=C3\NC(=O)N([C@@H](CO)c4ccc(C#N)cc4)C3=O)c[nH]c12 [Compound 96, (R,Z)-4-(1-(4-((6-chloro-7-methyl-1H-indol-3-yl)methylene)-2,5-dioxoimidazolidin-1-yl)-2-hydroxyethyl)benzonitrile]
< 10	< 10	≤ 1000	Cc1c(Cl)ccc2c(/C=C3\NC(=O)N(C(C(=O)NCCO)c4ccc(C#N)c(F)c4)C3=O)c[nH]c12 (stereo not drawn) [Compound 67, (Z)-2-(4-((6-chloro-7-methyl-1H-indol-3-yl)methylene)-2,5-dioxoimidazolidin-1-yl)-2-(4-cyano-3-fluorophenyl)-N-(2-hydroxyethyl)acetamide]
10 to 100	10 to 100	≤ 1000	N#Cc1cccc(CN2C(=O)N/C(=C\c3c[nH]c4c(F)c(Cl)ccc34)C2=O)c1 [Compound 18, (Z)-3-((4-((6-chloro-7-fluoro-1H-indol-3-yl)methylene)-2,5-dioxoimidazolidin-1-yl)methyl)benzonitrile]

Reference: patent US20250223307A1, “MDM2/MDMX DOUBLE-TARGET INHIBITOR COMPOUND, PRODRUG, PHARMACEUTICAL COMPOSITION, AND PREPARATION METHOD THEREFOR AND USE THEREOF” (GLOBAL HEALTH DRUG DISCOVERY INSTITUTE, priority 2022, published 2025)
